# Test results as given in patent publication US7985731B2, “Sugar chain added GLP-1 peptide” (Otsuka Chemical Holdings Co., Ltd., priority 2007, dated 2011).
# Peptide text beside a SMILES is read from it. * marks the point of attachment. X1 = CC(=O)N[C@@H]1[C@@H](O)[C@H](O[C@@H]2O[C@H](CO)[C@@H](O[C@@H]3O[C@H](CO[C@H]4O[C@H](CO)[C@@H](O)[C@H](O)[C@@H]4O[C@@H]4O[C@H](CO)[C@@H](O[C@@H]5O[C@H](CO[C@]6(C(=O)O)C[C@H](O)[C@@H](NC(C)=O)[C@H]([C@H](O)[C@H](O)CO)O6)[C@H](O)[C@H](O)[C@H]5O)[C@H](O)[C@H]4NC(C)=O)[C@@H](O)[C@H](O[C@H]4O[C@H](CO)[C@@H](O)[C@H](O)[C@@H]4O[C@@H]4O[C@H](CO)[C@@H](O[C@@H]5O[C@H](CO[C@]6(C(=O)O)C[C@H](O)[C@@H](NC(C)=O)[C@H]([C@H](O)[C@H](O)CO)O6)[C@H](O)[C@H](O)[C@H]5O)[C@H](O)[C@H]4NC(C)=O)[C@@H]3O)[C@H](O)[C@H]2NC(C)=O)[C@@H](CO)O[C@H]1NC(=O)C*
# Columns and labels:
# mouse GLP-1 receptor = biological target: T1, mouse GLP-1 receptor (Mus musculus, UniProt O35659); experiment: Test Example 6: ability to synthesize cAMP in mouse GLP-1 receptor-expressing CHO-K1 cells; format: cell-based
# T1 construct: expressed in transfected cells
# T1 sequence (O35659 22-463): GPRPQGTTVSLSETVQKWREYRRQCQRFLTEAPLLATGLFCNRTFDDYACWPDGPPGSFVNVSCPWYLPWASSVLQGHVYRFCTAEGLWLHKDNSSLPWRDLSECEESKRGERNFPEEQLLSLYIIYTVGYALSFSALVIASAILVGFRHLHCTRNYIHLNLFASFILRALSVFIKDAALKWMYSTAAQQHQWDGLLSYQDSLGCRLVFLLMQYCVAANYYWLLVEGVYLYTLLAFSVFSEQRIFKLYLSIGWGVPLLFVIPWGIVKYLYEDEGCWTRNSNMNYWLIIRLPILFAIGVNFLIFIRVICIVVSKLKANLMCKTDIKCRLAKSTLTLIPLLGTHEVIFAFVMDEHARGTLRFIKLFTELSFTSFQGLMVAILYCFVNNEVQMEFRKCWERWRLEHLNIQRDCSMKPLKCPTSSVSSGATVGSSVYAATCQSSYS
# Experimental: 1. Construction of Mouse GLP-1 Receptor-Expressing Vector
# A mouse GLP1 receptor sense primer (5′-[…]-3′) (SEQ ID NO: 152) and a mouse GLP-1 receptor antisense primer (5′-[…]-3′) (SEQ ID NO: 153) capable of binding to the 5′ and 3′ ends of mouse GLP-1 receptor cDNA were separately synthesized. PCR was performed using Ex Taq polymerase (TaKaRa) with cDNA (Clone ID: 40046534, Open Biosystems) as a template. Specifically, 50 μL in total of reaction solution consisting of 1 μL of template cDNA (10 ng/μL), 4 μL of 2.5 mM dNTPs, 1 μL of primer solution mixtures (each 50 μM), 5 μL of ×10 Ex Taq polymerase Buffer, 0.25 μL of Ex Taq polymerase and 38.75 μL of sterilized water was used and allowed to react by 94° C. for 1 minute; 94° C. for 45 seconds, 55° C. for 1 minute and 72° C. for 2 minutes (35 cycles); and 72° C. for 10 minutes. The PCR reaction product was electrophoresed on 1% agarose gel, and the cDNA fragment was purified using Wizard SV Gel and PCR Clean-up System (Promega) and treated with restriction enzymes (EcoRI and NheI) to obtain mouse GLP-1 receptor cDNA.
# To efficiently obtain cells highly expressing a mouse GLP-1 receptor, a pIRES-gfp vector was used as an expression vector. This vector was prepared by inserting, to a vector pEGFP-N1 (Clontech), an IRES gene-containing DNA fragment obtained by the restriction enzyme treatment (Sal I and BamHI) of pIRESpuro2 (Clontech).
# The mouse GLP-1 receptor cDNA fragment was inserted to pIRES-gfp to thereby obtain a mouse GLP-1 receptor-expressing vector mGLP-1R/pIRES-gfp. The DNA sequence of the obtained vector was confirmed using ABI3100-Avant (Applied Biosystems).
# 2. Preparation of Mouse GLP-1 Receptor-Expressing CHO-K1 Cells
# CHO-K1 cells (ATCC catalog No. CCL-61) were transfected with the obtained mGLP-1R/pIRES-gfp using FuGENE (registered trademark) (Roche) according to the instruction manual. The transfected CHO-K1 cells were cultured in RPMI1640 medium (Wako Pure Chemical Industries) containing 10% FCS (Hyclone) and penicillin-streptomycin (SIGMA). Drug selection was conducted by the addition of 1.0 mg/ml G418 (Wako Pure Chemical Industries). The drug resistance cells were sorted with a cell sorter (EPICS ALTRA, Beckman Coulter) using a GFP expression level as an index. After the sorting, the limiting dilution method was conducted to obtain cells highly expressing GFP, namely, cells highly expressing a mouse GLP-1 receptor. The obtained cells were used as mouse GLP-1 receptor-expressing CHO-K1 cells in the experiment shown below.
# 3. Analysis of Agonist Effect of Oligosaccharide Chain Added GLP-1 Peptide (Ability to Synthesize cAMP)
# The mouse GLP-1 receptor-expressing CHO-K1 cells prepared in the preceding paragraph 2 were used to evaluate the agonist effect of the oligosaccharide chain added GLP-1 peptide using the ability to synthesize cAMP as an index.
# The mouse GLP-1 receptor-expressing CHO-K1 cells were suspended at a concentration of 5×10^5 cells/ml in RPMI1640 medium containing 10% FCS. The cell suspension was seeded at a concentration of 100 μL per well to a flat-bottomed 96-well plate (Falcon) and cultured at 5% CO2 at 37° C. for 16 hours. The culture supernatant was discarded. The oligosaccharide chain added GLP-1 peptide dissolved in Krebs Ringer bicarbonate Buffer containing 2.5 mM glucose was added at a concentration of 100 μL/well and cultured at 37° C. for 30 minutes. The culture supernatant was immediately discarded. The amount of cAMP synthesized in the mouse GLP-1 receptor-expressing CHO-K1 cells was measured using cAMP ELISA Kit (GE Healthcare or Cayman) and used as an index for the agonist effect of the oligosaccharide chain added GLP-1 peptide on mouse GLP-1 receptors.
# GLP-1 increases intracellular cAMP concentrations through the binding to its receptor and promotes insulin secretion. Thus, the activity of the oligosaccharide chain added GLP-1 peptide was evaluated using the ability to synthesize cAMP as an index. […]
# C57BL/6JJcl mice = experiment: Test Example 7: Oral Glucose Tolerance Test (OGTT); format: in vivo; settings: 9 nmol/kg intraperitoneal 30 minutes before glucose 1 mg/g oral
# Experimental: After 30 minutes, a glucose solution was orally administered at a dose of 1 mg/g. Blood was collected from the orbits before the glucose administration and 30 minutes, 60 minutes and 120 minutes after the glucose administration. Blood-sugar levels were measured using ACCU-CHEK Aviva (Roche Diagnostics).
# After the oral administration of the glucose solution to the mice fasted overnight, blood was collected over time, and blood-sugar levels were measured.
# The correlation between the oligosaccharide chain structure and the activity was studied in mouse OGTT.
Structure (SMILES),cAMP synthesis activity compared with GLP-1 (in words) (mouse GLP-1 receptor),effect of suppressing rise in blood-sugar levels in OGTT (C57BL/6JJcl mice)
"CC[C@H](C)[C@H](NC(=O)[C@H](Cc1ccccc1)NC(=O)[C@H](CCC(=O)O)NC(=O)[C@H](CCCCN)NC(=O)[C@H](C)NC(=O)[C@H](C)NC(=O)[C@H](CCC(N)=O)NC(=O)CNC(=O)[C@H](CCC(=O)O)NC(=O)[C@H](CC(C)C)NC(=O)[C@H](Cc1ccc(O)cc1)NC(=O)[C@H](CO)NC(=O)[C@H](CO)NC(=O)[C@@H](NC(=O)[C@H](CC(=O)O)NC(=O)[C@H](CO)NC(=O)[C@@H](NC(=O)[C@H](Cc1ccccc1)NC(=O)[C@@H](NC(=O)CNC(=O)[C@H](CCC(=O)O)NC(=O)[C@H](C)NC(=O)[C@@H](N)Cc1c[nH]cn1)[C@@H](C)O)[C@@H](C)O)C(C)C)C(=O)N[C@@H](C)C(=O)N[C@@H](Cc1c[nH]c2ccccc12)C(=O)N[C@@H](CC(C)C)C(=O)N[C@H](C(=O)N[C@@H](CSCC(=O)N[C@@H]1O[C@H](CO)[C@@H](O[C@@H]2O[C@H](CO)[C@@H](O[C@@H]3O[C@H](CO[C@H]4O[C@H](CO)[C@@H](O)[C@H](O)[C@@H]4O[C@@H]4O[C@H](CO)[C@@H](O[C@@H]5O[C@H](CO)[C@H](O)[C@H](O)[C@H]5O)[C@H](O)[C@H]4NC(C)=O)[C@@H](O)[C@H](O[C@H]4O[C@H](CO)[C@@H](O)[C@H](O)[C@@H]4O[C@@H]4O[C@H](CO)[C@@H](O[C@@H]5O[C@H](CO)[C@H](O)[C@H](O)[C@H]5O)[C@H](O)[C@H]4NC(C)=O)[C@@H]3O)[C@H](O)[C@H]2NC(C)=O)[C@H](O)[C@H]1NC(C)=O)C(=O)NCC(=O)N[C@@H](CCCNC(=N)N)C(=O)NCC(=O)O)C(C)C [Example 27, 34Cys GLP-1-asialo]",activity equal to or more than that of the GLP-1,strong effect of suppressing rise in blood-sugar levels
"CC[C@H](C)[C@H](NC(=O)[C@H](Cc1ccccc1)NC(=O)[C@H](CCC(=O)O)NC(=O)[C@H](CSCC(=O)N[C@@H]1O[C@H](CO)[C@@H](O[C@@H]2O[C@H](CO)[C@@H](O[C@@H]3O[C@H](CO[C@H]4O[C@H](CO)[C@@H](O)[C@H](O)[C@@H]4O[C@@H]4O[C@H](CO)[C@@H](O[C@@H]5O[C@H](CO)[C@H](O)[C@H](O)[C@H]5O)[C@H](O)[C@H]4NC(C)=O)[C@@H](O)[C@H](O[C@H]4O[C@H](CO)[C@@H](O)[C@H](O)[C@@H]4O[C@@H]4O[C@H](CO)[C@@H](O[C@@H]5O[C@H](CO)[C@H](O)[C@H](O)[C@H]5O)[C@H](O)[C@H]4NC(C)=O)[C@@H]3O)[C@H](O)[C@H]2NC(C)=O)[C@H](O)[C@H]1NC(C)=O)NC(=O)[C@H](C)NC(=O)[C@H](C)NC(=O)[C@H](CCC(N)=O)NC(=O)CNC(=O)[C@H](CCC(=O)O)NC(=O)[C@H](CC(C)C)NC(=O)[C@H](Cc1ccc(O)cc1)NC(=O)[C@H](CO)NC(=O)[C@H](CO)NC(=O)[C@@H](NC(=O)[C@H](CC(=O)O)NC(=O)[C@H](CO)NC(=O)[C@@H](NC(=O)[C@H](Cc1ccccc1)NC(=O)[C@@H](NC(=O)CNC(=O)[C@H](CCC(=O)O)NC(=O)[C@H](C)NC(=O)[C@@H](N)Cc1c[nH]cn1)[C@@H](C)O)[C@@H](C)O)C(C)C)C(=O)N[C@@H](C)C(=O)N[C@@H](Cc1c[nH]c2ccccc12)C(=O)N[C@@H](CC(C)C)C(=O)N[C@H](C(=O)N[C@@H](CCCCN)C(=O)NCC(=O)N[C@@H](CCCNC(=N)N)C(=O)NCC(=O)O)C(C)C [Example 25, 26Cys GLP-1-asialo]",activity equal to or more than that of the GLP-1,strong effect of suppressing rise in blood-sugar levels
"CC[C@H](C)[C@H](NC(=O)[C@H](Cc1ccccc1)NC(=O)[C@H](CCC(=O)O)NC(=O)[C@H](CCCCN)NC(=O)[C@H](C)NC(=O)[C@H](C)NC(=O)[C@H](CCC(N)=O)NC(=O)[C@H](CSCC(=O)N[C@@H]1O[C@H](CO)[C@@H](O[C@@H]2O[C@H](CO)[C@@H](O[C@@H]3O[C@H](CO[C@H]4O[C@H](CO)[C@@H](O)[C@H](O)[C@@H]4O[C@@H]4O[C@H](CO)[C@@H](O[C@@H]5O[C@H](CO[C@]6(C(=O)O)C[C@H](O)[C@@H](NC(C)=O)[C@H]([C@H](O)[C@H](O)CO)O6)[C@H](O)[C@H](O)[C@H]5O)[C@H](O)[C@H]4NC(C)=O)[C@@H](O)[C@H](O[C@H]4O[C@H](CO)[C@@H](O)[C@H](O)[C@@H]4O[C@@H]4O[C@H](CO)[C@@H](O[C@@H]5O[C@H](CO[C@]6(C(=O)O)C[C@H](O)[C@@H](NC(C)=O)[C@H]([C@H](O)[C@H](O)CO)O6)[C@H](O)[C@H](O)[C@H]5O)[C@H](O)[C@H]4NC(C)=O)[C@@H]3O)[C@H](O)[C@H]2NC(C)=O)[C@H](O)[C@H]1NC(C)=O)NC(=O)[C@H](CCC(=O)O)NC(=O)[C@H](CC(C)C)NC(=O)[C@H](Cc1ccc(O)cc1)NC(=O)[C@H](CO)NC(=O)[C@H](CO)NC(=O)[C@@H](NC(=O)[C@H](CC(=O)O)NC(=O)[C@H](CO)NC(=O)[C@@H](NC(=O)[C@H](Cc1ccccc1)NC(=O)[C@@H](NC(=O)CNC(=O)[C@H](CCC(=O)O)NC(=O)[C@H](C)NC(=O)[C@@H](N)Cc1c[nH]cn1)[C@@H](C)O)[C@@H](C)O)C(C)C)C(=O)N[C@@H](C)C(=O)N[C@@H](Cc1c[nH]c2ccccc12)C(=O)N[C@@H](CC(C)C)C(=O)N[C@H](C(=O)N[C@@H](CCCCN)C(=O)NCC(=O)N[C@@H](CCCNC(=N)N)C(=O)NCC(=O)O)C(C)C [Example 2, 22Cys GLP-1-disialo] (H-HAEGTFTSDVSSYLEC(X1)QAAKEFIAWLVKGRG-OH)",activity equal to or more than that of the GLP-1,strong effect of suppressing rise in blood-sugar levels
